Where “and” joins values, the source holds several entries; their conditions need not be identical. Identical values can stand only once.
How the values were obtained:
Assay in all cases: MIC of imipenem, ertapenem and meropenem
P. rettgeri = format: cell-based, Providencia rettgeri
C. freundii = format: cell-based, Citrobacter freundii
P. mirabilis = format: cell-based
E. coli = format: cell-based, Escherichia coli

## C[C@@H](O)[C@H]1C(=O)N2C(C(=O)O)=C(S[C@@H]3CN[C@H](C(=O)N(C)C)C3)[C@H](C)[C@H]12 [MEM, meropenem]
P. rettgeri; P. rettgeri RAP (OXA-181 + OXA-1)
  MIC: 2 µg/mL
P. rettgeri; P. rettgeri RAP, OXA-181 + OXA-1
  MIC: 2 µg/mL
P. rettgeri; strain P. rettgeri RAP, OXA-181 + OXA-1
  MIC: 2 µg/mL
C. freundii; C. freundii 1003, CTX-M-15 + TEM-1, non-carbapenemase producer
  MIC: 0.023 µg/mL
C. freundii; C. freundii 7767 (wild type)
  MIC: 0.016 µg/mL
C. freundii; C. freundii 7767, (wild type), non-carbapenemase producer
  MIC: 0.016 µg/mL
C. freundii; C. freundii 10107 (TEM-1 + SHV-12)
  MIC: 0.023 µg/mL
C. freundii; C. freundii 10107, TEM-1 + SHV-12, non-carbapenemase producer
  MIC: 0.023 µg/mL
C. freundii; C. freundii 10135 (CTX-M-15)
  MIC: 0.023 µg/mL
C. freundii; C. freundii 10135, CTX-M-15, non-carbapenemase producer
  MIC: 0.023 µg/mL
C. freundii; C. freundii MAU (Overexpressed AmpC + TEM-3)
  MIC: 1 µg/mL
C. freundii; C. freundii MAU, Overexpressed AmpC + TEM-3, non-carbapenemase producer
  MIC: 1 µg/mL
C. freundii; C. freundii STE (NDM-1 + OXA-1 + OXA-9 + OXA-10 + CTX-M-15 + TEM-1)
  MIC: >32 µg/mL
C. freundii; C. freundii STE, NDM-1 + TEM-1 + CTX-M-15 + VIM-4 + OXA-1 + OXA-9 + OXA-10 + OXA-181
  MIC: >32 µg/mL
C. freundii; strain C. freundii 10107, TEM-1 + SHV-12, non-carbapenemase producer
  MIC: 0.023 µg/mL
C. freundii; strain C. freundii 10135, CTX-M-15, non-carbapenemase producer
  MIC: 0.023 µg/mL
C. freundii; strain C. freundii MAU, Overexpressed AmpC + TEM-3, non-carbapenemase producer
  MIC: 1 µg/mL
P. mirabilis; P. mirabilis 1031 (CTX-M-14 + TEM-1 + SHV-11)
  MIC: 0.032 µg/mL
P. mirabilis; P. mirabilis 1031, CTX-M-14 + TEM-1 + SHV-11, non-carbapenemase producer
  MIC: 0.032 µg/mL
P. mirabilis; P. mirabilis PMA (ACC-1)
  MIC: 0.12 µg/mL and 0.064 µg/mL
P. mirabilis; P. mirabilis PMA, ACC-1, non-carbapenemase producer
  MIC: 0.064 µg/mL
E. coli; E. coli 1008 (TEM-1 + CTX-M-1)
  MIC: 0.016 µg/mL
E. coli; E. coli 1008, CTX-M-1 + TEM-1, non-carbapenemase producer
  MIC: 0.016 µg/mL
E. coli; E. coli 1020, CTX-M-1 + TEM-1, non-carbapenemase producer
  MIC: 0.016 µg/mL
E. coli; E. coli 1023, CTX-M-2 + TEM-1, non-carbapenemase producer
  MIC: 0.016 µg/mL
E. coli; E. coli 1033, CTX-M-15, non-carbapenemase producer
  MIC: 0.016 µg/mL
E. coli; E. coli 1034 (TEM-1 + SHV-38)
  MIC: 0.016 µg/mL
E. coli; E. coli 1034, TEM-1 + SHV-38, non-carbapenemase producer
  MIC: 0.016 µg/mL
E. coli; E. coli 1048 (TEM-1 + SHV-2a)
  MIC: 0.016 µg/mL
E. coli; E. coli 1048, TEM-1 + SHV-2a, non-carbapenemase producer
  MIC: 0.016 µg/mL
E. coli; E. coli 1082 (TEM-1)
  MIC: 0.016 µg/mL
E. coli; E. coli 1082, TEM-1, non-carbapenemase producer
  MIC: 0.016 µg/mL
E. coli; E. coli 1092 (OXA-1)
  MIC: 0.023 µg/mL
E. coli; E. coli 1092, OXA-1, non-carbapenemase producer
  MIC: 0.023 µg/mL
E. coli; E. coli 6252, (wild type), non-carbapenemase producer
  MIC: 0.008 µg/mL
E. coli; E. coli 6367 (wild type)
  MIC: 0.012 µg/mL
E. coli; E. coli 6367, (wild type), non-carbapenemase producer
  MIC: 0.012 µg/mL
E. coli; E. coli 10121 (CTX-M-2)
  MIC: 0.016 µg/mL
E. coli; E. coli 10121, CTX-M-2, non-carbapenemase producer
  MIC: 0.016 µg/mL
E. coli; E. coli 10122, CTX-M-1 + TEM-1, non-carbapenemase producer
  MIC: 0.016 µg/mL
E. coli; E. coli 0404018, VIM-1+ CMY-6
  MIC: 1 µg/mL
E. coli; E. coli 1008077, VIM-1+ TEM-1 + CTX-M-15
  MIC: 4 µg/mL
E. coli; E. coli 1108013, IMP-1 + TEM-1
  MIC: 1 µg/mL
E. coli; E. coli ALL (NDM-1 + OXA-1 + OXA-2 + CTX-M-15 + TEM-1)
  MIC: 8 µg/mL
E. coli; E. coli ALL, NDM-1 + TEM-1 + CTX-M-15 + OXA-1 + OXA-2
  MIC: 8 µg/mL
E. coli; E. coli AME (OXA-48 + CTX-M-24)
  MIC: 0.19 µg/mL
E. coli; E. coli AME, OXA-48 + CTX-M-24
  MIC: 0.19 µg/mL
E. coli; E. coli AUS (NDM-1 + CTX-M-15 + TEM-1)
  MIC: 16 µg/mL
E. coli; E. coli AUS, NDM-1 + TEM-1 + CTX-M-15
  MIC: 16 µg/mL
E. coli; E. coli BER (OXA-48 + CTX-M-15)
  MIC: 0.19 µg/mL
E. coli; E. coli BER, OXA-48 + TEM-1 + CTX-M-15
  MIC: 0.19 µg/mL
E. coli; E. coli BOK (OXA-48 + CTX-M-15)
  MIC: 0.19 µg/mL
E. coli; E. coli BOK, OXA-48 + CTX-M-15
  MIC: 0.19 µg/mL
E. coli; E. coli BON (OXA-48 + CTX-M-24 + TEM-1)
  MIC: 0.19 µg/mL
E. coli; E. coli BON, OXA-48 + TEM-1 + CTX-M-24
  MIC: 0.19 µg/mL
E. coli; E. coli BOU (OXA-48 + CTX-M-15)
  MIC: 0.125 µg/mL
E. coli; E. coli BOU, OXA-48 + CTX-M-15
  MIC: 0.125 µg/mL
E. coli; E. coli COL (KPC-2)
  MIC: 2 µg/mL
E. coli; E. coli COL, KPC-2 + TEM-1 + CTX-M-9
  MIC: 2 µg/mL
E. coli; E. coli DIH (VIM-19)
  MIC: 4 µg/mL
E. coli; E. coli DIH, VIM-19
  MIC: 4 µg/mL
E. coli; E. coli DIN, KPC-2 + TEM-1 + OXA-1
  MIC: 0.5 µg/mL
E. coli; E. coli E14 (CTX-M-14)
  MIC: 0.12 µg/mL
E. coli; E. coli E14, CTX-M-14, non-carbapenemase producer
  MIC: 0.012 µg/mL
E. coli; E. coli ECA, ACC-1, non-carbapenemase producer
  MIC: 0.012 µg/mL
E. coli; E. coli EVB, VEB-1, non-carbapenemase producer
  MIC: 0.012 µg/mL
E. coli; E. coli FOR, CTX-M-15, non-carbapenemase producer
  MIC: 0.012 µg/mL
E. coli; E. coli GEN (NDM-1 + OXA-1 + CMY-30 + TEM-1)
  MIC: 12 µg/mL
E. coli; E. coli GEN, NDM-1 + TEM-1 + CMY-30 + OXA-1
  MIC: 12 µg/mL
E. coli; E. coli GOG (OXA-48 + CTX-M-24)
  MIC: 0.25 µg/mL
E. coli; E. coli GUE (NDM-1 + OXA-1 + TEM-1)
  MIC: 2 µg/mL
E. coli; E. coli GUE, NDM-1 + TEM-1 + OXA-1
  MIC: 2 µg/mL
E. coli; E. coli HAN (OXA-48 + CTX-M-15)
  MIC: 1 µg/mL
E. coli; E. coli HAN, OXA-48 + CTX-M-15
  MIC: 1 µg/mL
E. coli; E. coli HB4 (OmpC-, OmpF-)
  MIC: 0.25 µg/mL
E. coli; E. coli HB4, (OmpC-, OmpF-), non-carbapenemase producer, porin deficiency
  MIC: 0.25 µg/mL
E. coli; E. coli IR5 (NDM-1 + CTX-M-15 + TEM-1)
  MIC: 16 µg/mL
E. coli; E. coli IR5, NDM-1 + TEM-1 + CTX-M-15
  MIC: 16 µg/mL
E. coli; E. coli JAP (IMP-1)
  MIC: 0.5 µg/mL
E. coli; E. coli JAP, IMP-1
  MIC: 0.5 µg/mL
E. coli; E. coli LIL, KPC-2 + TEM-1 + OXA-9
  MIC: 1 µg/mL

From patent publication US9328374B2, “Selective culture medium and method for detecting carbapenem-resistant bacteria in a test sample” (Institut National de la Sante et de la Recherche Medicale …, priority 2011, dated 2016)
